Assay results taken from paper PMC12754617, “Ruthenium-enhanced curcumin derivatives target tumor growth and cancer-related inflammation in head and neck cancer models” (Frontiers in Oncology, 2025).

What was measured:
IL-8 = biological target: T1, IL-8 (Homo sapiens, UniProt P10145); assay: Sandwich ELISA assay IL-8; format: binding; settings: for Decrease of IL-8 concentration: 500 pg/mL IL-8
T1 construct: purchased PeproTech, Thermo Fisher Scientific
T1 sequence (P10145 21-99): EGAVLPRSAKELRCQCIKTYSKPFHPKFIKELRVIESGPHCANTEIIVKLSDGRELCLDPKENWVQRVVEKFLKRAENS
Method: (§1) Human ELISA kits for IL-6, IL-6R, and IL-8 (Sigma-Aldrich, Merck, Germany) were used to quantify cytokine levels after treatment with complex 3 or 4. Briefly, 96-well plates precoated with specific antibodies were used to capture IL-6, IL-6R, and IL-8 from samples. […] Each sample was supplemented with 500 pg/mL of IL-6/IL-6R/IL-8. Positive control wells contained only the IL-6/IL-6R/IL-8 standard (PeproTech, Thermo Fisher Scientific, Waltham, Massachusetts, USA). […] After incubation, wells were washed, and biotinylated antihuman antibodies were added, followed by washing and addition of HRP-conjugated streptavidin. Finally, the TMB substrate was added to develop a color proportional to the cytokine concentration, and the reaction was stopped with the stop solution. Absorbance was measured at 450 nm using an […] 200 PRO microplate reader (TECAN, Switzerland).

THP1-Blue NF-κB cells = assay: MTT viability assay of THP1-Blue NF-κB cells; format: cell-based; settings: concentrations of the NF-κB activity assay, overnight
Method: A total of 20 μL of sterile filtered MTT (Sigma-Aldrich, Merck, Germany) solution (5 mg/mL in PBS) was added to the remaining overnight culture of THP1-Blue NF-κB cells from the above NF-κB activity assay in 96-well plates, which were incubated at 37°C (see above). After 2 h of incubation at 37°C, the supernatant was removed, and the purple formazan product generated in the cells was dissolved by the addition of 100 μL of DMSO to each well. The plates were then gently shaken for 30 s at room temperature to dissolve the precipitates. The absorbance was measured at 570 nm using an […] 200 PRO microplate reader (TECAN, Switzerland) ([43]).

[1] = UV–Vis spectroscopy in PBS (solubility); format: physicochemical; settings: PBS (PBS:DMSO 99:1), UV–Vis linearity of absorbance
Method: All chemicals were sourced from commercial suppliers and utilized directly without any additional purification steps. Nuclear Magnetic Resonance (NMR) spectra were acquired on a 400-MHz spectrometer (JEOL, Tokyo, Japan) at 25°C. The chemical shifts (δ) are given in parts per million (ppm), with coupling constants (J) measured in hertz (Hz). The ^1H and ^13C NMR shifts are referenced to TMS, and solvent signals from Dimethyl Sulfoxide (DMSO)-d6 (2.50 ppm for ^1H and 39.52 ppm for ^13C) were used as references. Data analysis was performed using MestReNova software (version 14.2.1, Mestrelab Research S.L., Santiago de Compostela, SPAIN). Full assignment was performed using a combination of ^1H, ^13C, correlation spectroscopy (COSY), heteronuclear single quantum coherence (HSQC), and heteronuclear multiple bond correlation (HMBC) experiments. Mass spectrometry was conducted in positive ion mode using electrospray ionization (ESI^+) with a high-resolution hybrid Ion Trap-Orbitrap mass spectrometer (LTQ Orbitrap Velos, Thermo Scientific, Waltham, Massachusetts, USA), Supplementary Figures S21, S22. Detailed NMR spectra for all synthesized products are available in Supplementary Figures S12-S20. […] Characteristic absorption maxima were identified, and their dependence on concentration was evaluated.

[2] = system: NF-κB in THP1-Blue NF-κB cells; assay: NF-κB activity assay (SEAP reporter, LPS-induced); format: cell-based; settings: LPS 10 ng/mL
Method: THP1-Blue NF-κB cells, NF-κB secreted embryonic alkaline phosphatase (SEAP) reporter monocytes (InvivoGen, USA), were assayed after 20–24 h of incubation following the manufacturer’s protocol. Briefly, cells were seeded at 1 × 10^6 cells/mL in RPMI medium in 96-well plates (180 μL) and treated with complex 3 or 4, Lipopolysaccharide (LPS) (10 ng/mL; […] The next day, NF-κB activation was assessed via the secretion of SEAP. Supernatants (20 μL) were transferred to 96-well plates, and 180 μL of Quanti-Blue was added. Plates were incubated for 2 h at 37°C, and absorbance was measured at 600 nm using an […] 200 PRO microplate reader (TECAN, Switzerland).

IL-6R = biological target: T2, IL-6R (Homo sapiens, UniProt P08887); assay: ELISA assay IL-6R; format: binding; settings: 500 pg/mL IL-6R
T2 construct: purchased PeproTech, Thermo Fisher Scientific
Method: as §1

IKKβ = biological target: T3, IKKβ (Homo sapiens, UniProt O14920); assay: IKKβ inhibition assay (IKKβ Kinase Assay Kit); format: biochemical
T3 construct: purchased BPS Bioscience
T3 sequence (O14920 1-756): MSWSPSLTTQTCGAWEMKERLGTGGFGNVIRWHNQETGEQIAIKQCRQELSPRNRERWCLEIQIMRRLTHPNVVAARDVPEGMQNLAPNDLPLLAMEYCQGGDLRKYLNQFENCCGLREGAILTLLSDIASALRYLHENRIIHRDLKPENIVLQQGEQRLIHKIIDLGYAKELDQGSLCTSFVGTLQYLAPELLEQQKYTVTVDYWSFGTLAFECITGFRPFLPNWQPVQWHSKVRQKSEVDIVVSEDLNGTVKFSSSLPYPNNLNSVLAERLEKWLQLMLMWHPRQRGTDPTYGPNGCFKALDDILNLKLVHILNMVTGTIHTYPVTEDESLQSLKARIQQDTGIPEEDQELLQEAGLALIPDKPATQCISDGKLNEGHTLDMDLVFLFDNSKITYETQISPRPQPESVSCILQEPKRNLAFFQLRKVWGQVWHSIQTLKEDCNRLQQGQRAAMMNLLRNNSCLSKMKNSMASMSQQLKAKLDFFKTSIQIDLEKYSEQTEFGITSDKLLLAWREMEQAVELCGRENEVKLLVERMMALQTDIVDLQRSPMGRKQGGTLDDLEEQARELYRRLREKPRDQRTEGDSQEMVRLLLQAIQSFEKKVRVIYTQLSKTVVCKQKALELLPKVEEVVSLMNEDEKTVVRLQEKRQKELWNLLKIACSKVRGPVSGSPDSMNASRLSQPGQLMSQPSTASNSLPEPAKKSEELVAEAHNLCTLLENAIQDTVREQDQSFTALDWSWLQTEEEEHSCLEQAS
Method: IκB kinase beta (IKKβ) inhibition was determined using the IKKβ Kinase Assay Kit (BPS Bioscience, San Diego, California, USA). […] Kinase-Glo® MAX (Promega, #V6071, Madison, Wisconsin, USA) was used as the detection reagent, with an incubation time of 15 min. Blank values were subtracted from all measurements. Luminescence was measured with an integration time of 1 s using a Spark Microplate Reader (Tecan, Switzerland).

T2 sequence (P08887 20-468): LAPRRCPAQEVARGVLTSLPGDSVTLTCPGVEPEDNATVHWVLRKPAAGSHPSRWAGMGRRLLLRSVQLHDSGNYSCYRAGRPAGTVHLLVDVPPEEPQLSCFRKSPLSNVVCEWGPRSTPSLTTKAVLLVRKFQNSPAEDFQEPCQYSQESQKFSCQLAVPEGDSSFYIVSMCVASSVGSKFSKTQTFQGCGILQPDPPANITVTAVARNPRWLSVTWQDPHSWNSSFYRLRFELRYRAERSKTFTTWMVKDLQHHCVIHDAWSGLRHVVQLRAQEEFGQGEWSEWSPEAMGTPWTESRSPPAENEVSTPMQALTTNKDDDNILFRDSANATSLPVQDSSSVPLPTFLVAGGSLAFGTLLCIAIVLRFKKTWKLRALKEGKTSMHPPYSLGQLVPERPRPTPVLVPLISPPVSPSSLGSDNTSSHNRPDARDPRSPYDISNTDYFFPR

| SMILES | IL-8 reduction relative to curcumin (IL-8; 1 µM versus curcumin at 5 µM) | Decrease of IL-8 concentration (IL-8; 8 µM) | Cytotoxicity in THP1-Blue NF-κB cells (MTT) (THP1-Blue NF-κB cells) | Solubility in the buffered environment [1] | Reduction of LPS-induced NF-κB activation ([2]; 8 μM) | Decrease in IL-6R concentration (IL-6R; 8 μM) | Reduction of IKKβ activity (IKKβ; 8 μM) | Decrease of IL-8 concentration (IL-8; 15 µM) | Reduction of LPS-induced NF-κB activation ([2]; 15 μM) | Decrease in IL-6R concentration (IL-6R; 15 μM) | Inhibition of IKKβ activity (IKKβ; 1 μM) |
| --- | --- | --- | --- | --- | --- | --- | --- | --- | --- | --- | --- |
| Cc1ccc(C(C)C)cc1.Cc1ccc(C(C)C)cc1.O=C1C(=Cc2ccnc3ccccc23)COCC1=Cc1ccnc2ccccc12.[Cl][Ru][Cl].[Cl][Ru][Cl] [Complex 3] | roughly 1.5 fold | approximately 40% | Neither complex 3, complex 4, nor curcumin exhibited significant cytotoxicity | sufficient solubility | approximately 80% | about 15% | about 40% |  |  |  |  |
| Cc1ccc(C(C)C)cc1.Cc1ccc(C(C)C)cc1.O=C1C(=Cc2cccnc2)CCC1=Cc1cccnc1.[Cl][Ru][Cl].[Cl][Ru][Cl] [Complex 4] |  |  | Neither complex 3, complex 4, nor curcumin exhibited significant cytotoxicity | sufficient solubility |  |  |  | approximately 30% | about 70% | about 15% | approximately 30% |
